Laboratory results reported in patent US10947271B2, “Antibacterial agents” (THE UNIVERSITY OF QUEENSLAND, priority 2014, dated 2021).

How the values were obtained:
[1] = system: Staphylococcus aureus MRSA ATCC 43300; assay: MIC assay, S. aureus MRSA ATCC 43300; type: cell-based; conditions: 24 h incubation, visual reading
Summary of the method: (§1)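 Overnight MHB cultures at 37° C were diluted 40-fold and grown 2-3 hrs to mid-log, then added at 5×10e5 CFU/mL to twofold compound dilutions (8 to 0.003 μg/ml). Plates were incubated 24 h at 37° C and MIC scored by eye.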

[2] = system: Streptococcus pneumoniae MDR ATCC 700677; assay: MIC assay, S. pneumoniae MDR ATCC 700677; type: cell-based; conditions: 24 h incubation, visual reading
Summary of the method: as §1

[3] = system: Enterococcus faecium MDR Van A ATCC 51559; assay: MIC assay, E. faecium MDR Van A ATCC 51559; type: cell-based; conditions: 24 h incubation, visual reading
Summary of the method: as §1

MRSA (Strain ATCC 43300) = assay: Murine thigh infection model (MRSA); type: in vivo, Staphylococcus aureus; conditions: neutropenic CD1 mice
Description: Summary: Adult (8 week old) female CD1 mice were made neutropenic by two injections of cyclophosphamide 4 days and 1 day prior to infection. An inoculum of 10^5 cfu MRSA (Strain ATCC 43300) was injected intramuscularly into both left and right thighs of all mice. […] After an additional two hours, a 50 μL sample of blood was obtained from the tail bleed to analyse for presence of antibiotic compound. […] Thighs were then removed, weighed and homogenised in a fixed volume of saline. The homogenate solution was filtered, diluted and seeded onto agar plates, which were incubated overnight at 37° C. Colony counts were used to establish the cfu in the thigh homogenates, the cfu/thigh, and the cfu/g of thigh.
Compound preparation: Cyclophosphamide monohydrate (Sigma) was dissolved in sterile saline to a concentration of 30 mg/mL. Likewise, vancomycin (Sigma) and MCC compounds were also dissolved in sterile saline to a final concentration of 60 mg/mL and 18.5 mg/mL respectively. All compounds were prepared in low binding Eppendorf tubes and kept at −20° C. until used.
In vivo experimental assay: Eight week old female outbred CD1 mice (UQBR-AIBN) were rendered neutropenic by injecting two doses of cyclophosphamide intraperitoneally 4 days (150 mg/kg) and 1 day (100 mg/kg) prior to experimental infection. The infection model using MRSA was established by intramuscular injection of 50 μL of early-log-phase bacterial MRSA suspension (around 2×10^6 cfu/mL) in saline into both thigh muscles. […] Untreated animals received equivalent volume of saline (Baxter). The mice were monitored for signs of normal behaviour (i.e. grooming, eating, drinking, sleeping, and alertness) during and following dosing. Two hours after saline/antibiotic treatment, 0.05 mL of blood was collected by tail incision. 24 hours after MRSA infection, mice were euthanized and blood collected from the heart by cardiac puncture (saline group) or by tail incision (Vancomycin and MCC compound treated groups) as outlined in FIG. 1. For each mouse, both thighs were collected aseptically by cutting the leg at the hip and knee, placed in 10 mL of cold sterile saline and the individual weight of each thigh recorded.
Preparation of injectable MRSA solution: An MRSA subculture bacterial isolate (ATCC43300) was taken from the storage at −80° C. and freshly seeded on agar plates for overnight (O/N) growth. From the O/N culture preparation, a single colony was diluted into 10-12 mL of Mueller Hinton broth (MHB) and incubated O/N at 37° C. A log-phase subculture was obtained by adding 100 μL of O/N subculture in 10 mL MHB and incubated for a further 2-3 hours. Finally, the OD600 value of the bacterial suspension was determined and the colony forming units per millilitre (cfu/mL) extrapolated. A full dilution of the bacterial cell suspension in saline was achieved by washing (3220×g for 10 min) and the OD600 in saline determined. The suspension was then diluted out accordingly in order to achieve a 2×10^6 cfu/mL solution (10^5 cfu in 50 μL/thigh).
Thus, 10 μL of the injectable MRSA suspension was diluted down to 10-1000 fold, each dilution plated out onto agar plates and incubated at 37° C. for 24 hours.
Thigh homogenates and CFU determination: Thighs were homogenized at 20,000 rpm for 15 seconds using a Polytron MR2500E using a […] probe (all Kinematica).

[4] = single subcutaneous dose 10 mg/kg
[5] = single subcutaneous dose 25 mg/kg

Row | SMILES | Minimum Inhibitory Concentration (MIC) Staph. aureus ATCC43300 [1] | Minimum Inhibitory Concentration (MIC) S. pneumoniae ATCC 700677 [2] | Minimum Inhibitory Concentration (MIC) E. faecium ATCC51559 [3] | Average Reduction log Δcfu MRSA/thigh after 26 h (MRSA (Strain ATCC 43300); [4]) | Average Reduction log Δcfu MRSA/thigh after 26 h (MRSA (Strain ATCC 43300); [5]) | Average Reduction log Δcfu MRSA/thigh after 26 h (MRSA (Strain ATCC 43300); single subcutaneous dose 50 mg/kg)
1 | CNC(CC(C)C)C(=O)NC1C(=O)NC(CC(N)=O)C(=O)NC2C(=O)NC3C(=O)NC(C(=O)NC(C(=O)NCCCNC(=O)C(CCCCN)NC(=O)C(CCCCN)NC(=O)c4ccc(Oc5ccccc5)cc4)c4cc(O)cc(O)c4-c4cc3ccc4O)C(O)c3ccc(c(Cl)c3)Oc3cc2cc(c3OC2OC(CO)C(O)C(O)C2OC2CC(C)(N)C(O)C(C)O2)Oc2ccc(cc2Cl)C1O (centres unmarked) [MCC_005364] | xxxxx (xxxxx = <0.01) | xxxx (xxxx = 0.01-<0.1) | xx (xx = 1-4) | xx (xx = 2-4) | – | –
2 | CCCCCCCCCC(=O)N[C@@H](CCCCN)C(=O)NCCCNC(=O)[C@H]1NC(=O)[C@H]2NC(=O)[C@H](NC(=O)[C@@H]3NC(=O)[C@H](CC(N)=O)NC(=O)[C@H](NC(=O)[C@@H](CC(C)C)NC)[C@H](O)c4ccc(c(Cl)c4)Oc4cc3cc(c4O[C@@H]3O[C@H](CO)[C@@H](O)[C@H](O)[C@H]3O[C@H]3C[C@](C)(N)[C@H](O)[C@H](C)O3)Oc3ccc(cc3Cl)[C@H]2O)c2ccc(O)c(c2)-c2c(O)cc(O)cc21 [MCC_005200] | xxxx (xxxx = 0.01-<0.1) | xxxx (xxxx = 0.01-<0.1) | xx (xx = 1-4) | xx (xx = 2-4) | – | –
3 | CCCCCCCCCCC(=O)N[C@@H](CCCCN)C(=O)N[C@@H](CCCCN)C(=O)NCCCNC(=O)[C@H]1NC(=O)[C@H]2NC(=O)[C@H](NC(=O)[C@@H]3NC(=O)[C@H](CC(N)=O)NC(=O)[C@H](NC(=O)[C@@H](CC(C)C)NC)[C@H](O)c4ccc(c(Cl)c4)Oc4cc3cc(c4O[C@@H]3O[C@H](CO)[C@@H](O)[C@H](O)[C@H]3O[C@H]3C[C@](C)(N)[C@H](O)[C@H](C)O3)Oc3ccc(cc3Cl)[C@H]2O)c2ccc(O)c(c2)-c2c(O)cc(O)cc21 [MCC_000344] | xxxx (xxxx = 0.01-<0.1) | xxxx (xxxx = 0.01-<0.1) | xx (xx = 1-4) | – | xxx (xxx = 4-6) | –
4 | CCCCCCCCCCC(=O)NC(CCCCN)C(=O)NC(CCCCN)C(=O)NC(CCCCNC(=O)C1NC(=O)C2NC(=O)C(NC(=O)C3NC(=O)C(CC(N)=O)NC(=O)C(NC(=O)C(CC(C)C)NC)C(O)c4ccc(c(Cl)c4)Oc4cc3cc(c4OC3OC(CO)C(O)C(O)C3OC3CC(C)(N)C(O)C(C)O3)Oc3ccc(cc3Cl)C2O)c2ccc(O)c(c2)-c2c(O)cc(O)cc21)C(N)=O (centres unmarked) [MCC_000455] | xxxxx (xxxxx = <0.01) | xxxxx (xxxxx = <0.01) | xxx (xxx = 0.1-<1) | – | xxx (xxx = 4-6) | –
5 | CNC(CC(C)C)C(=O)NC1C(=O)NC(CC(N)=O)C(=O)NC2C(=O)NC3C(=O)NC(C(=O)NC(C(=O)NCCCNC(=O)C(CCCCN)NC(=O)c4ccc(Oc5ccccc5)cc4)c4cc(O)cc(O)c4-c4cc3ccc4O)C(O)c3ccc(c(Cl)c3)Oc3cc2cc(c3OC2OC(CO)C(O)C(O)C2OC2CC(C)(N)C(O)C(C)O2)Oc2ccc(cc2Cl)C1O (centres unmarked) [MCC_007407] | xxxx (xxxx = 0.01-<0.1) | xxxx (xxxx = 0.01-<0.1) | x (x = >4) | xxx (xxx = 4-6) | – | –
6 | CCCCCCCCCC(=O)N[C@@H](CCCCN)C(=O)N[C@@H](CCCCN)C(=O)N[C@@H](CCCCN)C(=O)NCCCNC(=O)[C@H]1NC(=O)[C@H]2NC(=O)[C@H](NC(=O)[C@@H]3NC(=O)[C@H](CC(N)=O)NC(=O)[C@H](NC(=O)[C@@H](CC(C)C)NC)[C@H](O)c4ccc(c(Cl)c4)Oc4cc3cc(c4O[C@@H]3O[C@H](CO)[C@@H](O)[C@H](O)[C@H]3O[C@H]3C[C@](C)(N)[C@H](O)[C@H](C)O3)Oc3ccc(cc3Cl)[C@H]2O)c2ccc(O)c(c2)-c2c(O)cc(O)cc21 [MCC_005201] | xxxx (xxxx = 0.01-<0.1) | xxxx (xxxx = 0.01-<0.1) | xx (xx = 1-4) | xx (xx = 2-4) | – | –
7 | CNC(CC(C)C)C(=O)NC1C(=O)NC(CC(N)=O)C(=O)NC2C(=O)NC3C(=O)NC(C(=O)NC(C(=O)NCCCNC(=O)C(CCCCN)NC(=O)C(CCCCN)NC(=O)CC4CCCCC4)c4cc(O)cc(O)c4-c4cc3ccc4O)C(O)c3ccc(c(Cl)c3)Oc3cc2cc(c3OC2OC(CO)C(O)C(O)C2OC2CC(C)(N)C(O)C(C)O2)Oc2ccc(cc2Cl)C1O (centres unmarked) [MCC_005363] | xxx (xxx = 0.1-<1) | xxx (xxx = 0.1-<1) | x (x = >4) | – | – | xxx (xxx = 4-6)
8 | CCCCCCCCC(=O)N[C@@H](CCCCN)C(=O)N[C@@H](CCCCNC(=O)[C@H]1NC(=O)[C@H]2NC(=O)[C@H](NC(=O)[C@@H]3NC(=O)[C@H](CC(N)=O)NC(=O)[C@H](NC(=O)[C@@H](CC(C)C)NC)[C@H](O)c4ccc(c(Cl)c4)Oc4cc3cc(c4O[C@@H]3O[C@H](CO)[C@@H](O)[C@H](O)[C@H]3O[C@H]3C[C@](C)(N)[C@H](O)[C@H](C)O3)Oc3ccc(cc3Cl)[C@H]2O)c2ccc(O)c(c2)-c2c(O)cc(O)cc21)C(=O)O [MCC_005223] | xxx (xxx = 0.1-<1) | xx (xx = 1-4) | x (x = >4) | x (x = 0-2) | – | –
